One assay relates to NCI-H2122 cells. As to the kind of experiment: NCI-H2122 CTG proliferation assay (120 h) (NSCLC, G12C). In kind it is cell-based. Conditions: Homo sapiens. An outline of the steps:
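Proliferation was read by CellTiter-Glo luminescence after 120 h of compound exposure, starting one day after seeding 200 NCI-H2122 (G12C) cells per well in RPMI/10% FCS. RLU relative to DMSO wells gave percent viability, and four-parameter nonlinear regression gave IC50.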

In another assay the test system is MKN1 cells. Nature of the assay: MKN1 CTG proliferation assay (120 h) (gastric cancer, wt amplified). The class given is cell-based. An outline of the steps: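 MKN1 gastric cancer cells (200–500 per well, RPMI + 10% FCS) given a logarithmic compound dose series and incubated 120 h. Viability by CellTiter-Glo luminescence as percent of DMSO controls. IC50 by four-parameter non-linear regression.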

Where [1] appears, read: Homo sapiens, MKN-1, assay 3, CTG 120 h, read-out: MKN1 (assay 3) IC50.
Where [2] appears, read: Homo sapiens, MKN-1, assay 1, CTG 120 h, read-out: MKN1 (assay 1) IC50.
The mark [3] stands for this setting: Homo sapiens, MKN-1, assay 2, CTG 120 h, read-out: MKN1 (assay 2) IC50.

SMILES strings stand for the structures. Read-outs that look alike come from different tables or passages of the source.

Usually IC50 stands for the point on the concentration scale where inhibition reaches its midpoint.

In the case of `C[C@H](Oc1cc(N2CCNC[C@@]23CCOC3)nc(-c2onc3c2CCC[C@@]32CCCc3sc(N)c(C#N)c32)n1)[C@@H]1CCCN1C` [I-13], the IC50 amounted to 6470 nM in the assay with NCI-H2122 cells and 679 nM in the assay with MKN1 cells (setting [1]).

Consider `C[C@H](Oc1cc(-n2ccc(-c3cnccn3)n2)nc(-c2noc3c2CCC[C@@]32CCCc3sc(N)c(C#N)c32)n1)[C@@H]1CCCN1C` [II-130], for which the IC50 turned out to be 221 nM in the assay on NCI-H2122 cells, 216 nM in the assay on MKN1 cells (setting [2]) and 297 nM in the assay with MKN1 cells (setting [1]).

Turning to `C[C@H](Oc1cc(N2CCN[C@@H](C)C2)nc(-c2noc3c2CCC[C@@]32CCCc3sc(N)c(C#N)c32)n1)[C@@H]1CCCN1C` [II-162], the results for the IC50 in the assay on NCI-H2122 cells and in the assay with MKN1 cells (setting [1]) were 3320 nM and 411 nM, respectively. With `C[C@H](Oc1cc(-n2cc3c(n2)CNC3)nc(-c2noc3c2CCC[C@@]32CCCc3sc(N)c(C#N)c32)n1)[C@@H]1CCCN1C` [II-168], the 50% inhibitory concentration (IC50) with NCI-H2122 cells came out at 1770 nM; in the assay with MKN1 cells (setting [1]), 176 nM.

As for `C[C@H](Oc1cc(C2=CCNCC2)nc(-c2noc3c2CCC[C@@]32CCCc3sc(N)c(C#N)c32)n1)[C@@H]1CCCN1C` [II-164], the IC50 with NCI-H2122 cells stood at 4580 nM; in the assay with MKN1 cells (setting [1]), 1070 nM. For the compound `C[C@H](Oc1cc(-c2cccc(C(N)=O)c2)nc(-c2noc3c2CCC[C@@]32CCCc3sc(N)c(C#N)c32)n1)[C@@H]1CCCN1C` [II-133], the IC50 was determined as 180 nM in the assay with NCI-H2122 cells and 391 nM in the assay with MKN1 cells (setting [1]). As to `C[C@H](Oc1cc(-n2ccc(C(=O)N[C@H]3CCOC3)n2)nc(-c2noc3c2CCC[C@@]32CCCc3sc(N)c(C#N)c32)n1)[C@@H]1CCCN1C` [II-193], in the assay with MKN1 cells (assay 3, CTG 120 h, read-out: MKN1 (assay 3) IC50), the IC50 was 17 nM. For the compound `C[C@H](Oc1cc(N2CCN(C)C3(CC3)C2)nc(-c2noc3c2CCC[C@@]32CCCc3sc(N)c(C#N)c32)n1)[C@@H]1C[C@@H](F)CN1C` [II-149], the IC50 turned out to be 2550 nM with NCI-H2122 cells and 467 nM in the assay on MKN1 cells (setting [3]). Take `C[C@H](Oc1cc(N2CCNC3(CC3)C2)nc(-c2noc3c2CCC[C@@]32CCCc3sc(N)c(C#N)c32)n1)[C@@H]1C[C@@H](F)CN1C` [II-165]: the IC50 amounted to 1790 nM in the assay on NCI-H2122 cells and 427 nM in the assay on MKN1 cells (setting [3]).

For the compound `C[C@H](Oc1cc(-n2ccc(-c3cn(CC4(C)COC4)nn3)n2)nc(-c2noc3c2CCC[C@@]32CCCc3sc(N)c(C#N)c32)n1)[C@@H]1CCCN1C` [II-213], in the assay on MKN1 cells (setting [1]), the concentration for half-maximal inhibition (IC50) worked out at 12 nM. Take `C[C@H](Oc1cc(-n2ccc(C(=O)N(C)C3COC3)n2)nc(-c2noc3c2CCC[C@@]32CCCc3sc(N)c(C#N)c32)n1)[C@@H]1CCCN1C` [II-194]: the IC50 turned out to be 20 nM in the assay on MKN1 cells (setting [2]) and 25 nM in the assay on MKN1 cells (setting [1]). Regarding `C[C@H](Oc1nc(-c2noc3c2CCC[C@@]32CCCc3sc(N)c(C#N)c32)nc(N2CCNC3(CC3)C2)c1F)[C@@H]1C[C@@H](F)CN1C` [II-155], the IC50 in the assay with NCI-H2122 cells was found to be 929 nM; in the assay on MKN1 cells (setting [3]) it was 284 nM; with MKN1 cells (setting [1]), 633 nM. Consider `C[C@H](Oc1cc(-n2cc3ccn(C[C@H]4CCOC4)c(=O)c3n2)nc(-c2noc3c2CCC[C@@]32CCCc3sc(N)c(C#N)c32)n1)[C@@H]1CCCN1C` [II-204], for which the half-inhibitory concentration (IC50) in the assay with MKN1 cells (setting [3]) was found to be 33 nM; in the assay on MKN1 cells (setting [1]), 48 nM. `CO[C@H]1CCN(C)[C@@H]1[C@H](C)Oc1cc(-n2ccc(C(=O)N(C)C3COC3)n2)nc(-c2noc3c2CCC[C@@]32CCCc3sc(N)c(C#N)c32)n1` [II-199]: the IC50 in the assay with MKN1 cells (setting [1]) is 51 nM. Regarding `C[C@H](Oc1cc(N2CCNC3(COC3)C2)nc(-c2noc3c2CCC[C@@]32CCCc3sc(N)c(C#N)c32)n1)[C@@H]1C[C@@H](F)CN1C` [II-150], the IC50 in the assay on NCI-H2122 cells amounted to 2510 nM; with MKN1 cells (setting [3]), 32 nM. With `C[C@H](Oc1cc(-n2cc3ccn(C4CCOCC4)c(=O)c3n2)nc(-c2noc3c2CCC[C@@]32CCCc3sc(N)c(C#N)c32)n1)[C@@H]1CCCN1C` [II-206], the half-maximal inhibitory concentration (IC50) in the assay on MKN1 cells (setting [1]) is 34 nM.

For the compound `C[C@H](Oc1cc(-n2ccc(-c3cn([C@@H]4CCOC4)nn3)n2)nc(-c2noc3c2CCC[C@@]32CCCc3sc(N)c(C#N)c32)n1)[C@@H]1CCCN1C` [II-211], the IC50 with MKN1 cells (setting [1]) was determined as 22 nM.

Take `C[C@H](Oc1cc(-n2ccc(C(=O)N[C@@H]3CCOC3)n2)nc(-c2noc3c2CCC[C@@]32CCCc3sc(N)c(C#N)c32)n1)[C@@H]1CCCN1C` [II-192]: the IC50 with MKN1 cells (setting [2]) was 25 nM; in the assay with MKN1 cells (setting [3]) it was 26 nM; in the assay on MKN1 cells (setting [1]) it was 9 nM. For the compound `CO[C@H]1CCN(C)[C@@H]1[C@H](C)Oc1cc(-n2ccc(CC(=O)NC(C)C)n2)nc(-c2noc3c2CCC[C@@]32CCCc3sc(N)c(C#N)c32)n1` [II-183], the 50% inhibitory concentration (IC50) in the assay on MKN1 cells (setting [1]) amounted to 41 nM. For `CO[C@H]1CCN(C)[C@@H]1[C@H](C)Oc1cc(N2CCN(C)C3(CC3)C2)nc(-c2noc3c2CCC[C@@]32CCCc3sc(N)c(C#N)c32)n1` [II-186], the results for the IC50 in the assay with MKN1 cells (setting [3]) and with MKN1 cells (setting [1]) were 313 nM and 260 nM, respectively.

The values are drawn from US20240174690A1, “ANNULATED 2-AMINO-3-CYANO THIOPHENES AND DERIVATIVES FOR THE TREATMENT OF CANCER” (BOEHRINGER INGELHEIM INTERNATIONAL GMBH, priority 2021, published 2024).
